Experimental data reported in PubChem BioAssay (NCI).
Several values for one entry are separate records, joined by “and”; a condition that tells them apart may be missing. Identical values can stand only once.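 Growth conditions: 96-well plates. Treatment: test compound, 48 hours, 5 concentrations. Analysis: linear interpolation between bracketing concentrations; unreached endpoints set to highest concentration. Abbreviation: GI50, concentration required for 50% inhibition of growth. The concentration for full growth arrest is given as TGI.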

What was measured:
Test in all cases: growth of human tumour cells (NCI), 48 h
OVCAR-4 ovarian = tested on: OVCAR-4 ovarian
HOP-92 NSCLC = tested on: HOP-92 NSCLC
NCI/ADR-RES ovarian = tested on: NCI/ADR-RES ovarian
MALME-3M melanoma = tested on: MALME-3M melanoma
A549 NSCLC = tested on: A549 NSCLC
UACC-62 melanoma = tested on: UACC-62 melanoma
HCT-15 colon = tested on: HCT-15 colon
SK-MEL-28 melanoma = tested on: SK-MEL-28 melanoma
CAKI-1 renal = tested on: CAKI-1 renal
UACC-257 melanoma = tested on: UACC-257 melanoma

SMILES	TGI (OVCAR-4 ovarian) [µM]	TGI (HOP-92 NSCLC) [µM]	TGI (NCI/ADR-RES ovarian)	TGI (MALME-3M melanoma)	TGI (A549 NSCLC)	TGI (UACC-62 melanoma)	TGI (HCT-15 colon)	TGI (SK-MEL-28 melanoma)	TGI (CAKI-1 renal)	TGI (UACC-257 melanoma)	GI50 (OVCAR-4 ovarian)	GI50 (HOP-92 NSCLC)	GI50 (NCI/ADR-RES ovarian)	GI50 (MALME-3M melanoma)	GI50 (A549 NSCLC)	GI50 (UACC-62 melanoma) [µM]	GI50 (HCT-15 colon)	GI50 (SK-MEL-28 melanoma)	GI50 (CAKI-1 renal)	GI50 (UACC-257 melanoma)
CC1(C)CC[C@]2(C(=O)O)CC[C@]3(C)C(=CC[C@@H]4[C@@]5(C)C[C@H](O)[C@H](O)[C@@](C)(C(=O)O)[C@@H]5CC[C@]43C)[C@@H]2C1	> 100	> 100	> 100 µM	> 100 µM	> 100 µM	> 94.2 µM	> 100 µM	> 100 µM	> 100 µM	> 100 µM										
N/C(=N/N=C/c1ccccc1)N/N=C\c1ccccc1	> 100	42.2	> 100 µM	27.2 µM	> 100 µM	28.6 µM	30.3 µM	33.3 µM	> 100 µM	27.6 µM	19.6 µM	2.52 µM	3.26 µM	6.84 µM	3.79 µM	7.92	3.72 µM	10.7 µM	5.02 µM	7.5 µM
CC(N)(/C=C/c1ccccc1)C(=O)O (stereo not given)	> 100	> 100	> 100 µM	> 100 µM	> 100 µM	> 100 µM	> 100 µM	> 100 µM	> 100 µM	> 100 µM										
Cn1nc(C(F)(F)F)cc1-c1c[nH]c(OCc2ccc(Cl)cc2)c(-c2ccc(Cl)c(C(F)(F)F)c2)c1=O	> 50	1.54	> 50 µM	3.07 µM	> 50 µM	2.29 µM	5.07 µM	3.97 µM	2.91 µM	3.6 µM	1.43 µM	0.224 µM	1.42 µM	1.09 µM	1.45 µM	0.516	0.784 µM	1.07 µM	0.917 µM	0.919 µM
CCNC(=O)Nc1ccc(Oc2ccnc3ccc4c(ccn4C)c23)cc1	> 100	> 100	> 100 µM	> 100 µM	> 100 µM	39.3 µM	> 100 µM	> 100 µM	0.961 µM	86.2 µM	54.2 µM	45.5 µM	55.8 µM	38.3 µM	44.1 µM	19.5	37.9 µM	9.33 µM	0.236 µM	28.4 µM
CCCc1cc(=O)n2c(C(=O)Nc3cccc(C(=O)OCC)c3)c(C(=O)Nc3ccc(F)cc3)sc2n1	20.9	7.99	> 140 µM	58 µM	24.1 µM	> 140 µM	> 140 µM	> 140 µM	28.2 µM	> 140 µM	3.27 µM	1.33 µM	22.3 µM	13.1 µM	4.32 µM	48.4	125 µM	133 µM	4.95 µM	54.1 µM
N=N/C(=C\c1c(O)[nH]c2ccccc12)c1ccccc1	> 100	> 100	> 57.2 µM	> 78 µM	> 100 µM	> 100 µM	> 66.4 µM	> 100 µM	> 100 µM	> 100 µM										
CN(C)CCCCC(C(=O)CBr)(c1ccccc1)c1ccccc1	7.88	4.71	10.1 µM	3.62 µM	18.8 µM	4.14 µM	3.37 µM	3.49 µM	2.84 µM	6.59 µM	1.54 µM	1.84 µM	2.85 µM	1.44 µM	4.93 µM	1.64	1.64 µM	1.77 µM	1.42 µM	1.96 µM
[Cl][Hg][c]1ccc(Cl)s1	4.78	3.11	23.3 µM	2.94 µM	60.9 µM	3.46 µM	1.72 µM	2.87 µM	3.29 µM	3.04 µM	1.76 µM	1.67 µM	3.31 µM	1.3 µM	18.7 µM	1.57	0.397 µM	1.42 µM	1.69 µM	1.54 µM
COc1cc(/C(=C2/O[C@@H]([C@H]3COC(C)(C)O3)[C@H]3OC(C)(C)O[C@@H]23)c2ccc3ccccc3c2)cc(OC)c1OC	8.02	13.3	22.3 µM	5.59 µM	9.55 µM	> 100 µM	> 100 µM	9.65 µM	> 100 µM	67.9 µM	2.82 µM	2.67 µM	4.26 µM	2.07 µM	3.09 µM	7.13	76.8 µM	2.86 µM	4.54 µM	4.28 µM
COCCNc1ccc2c3c(cccc13)C(=O)N(CCN(C)C)C2=O	> 25	> 25	> 25 µM	21.1 µM	> 25 µM	14.4 µM	> 25 µM	23.1 µM	10.1 µM	> 25 µM	11.8 µM	10.2 µM	8.98 µM	6.13 µM	6.35 µM	4.54	6.84 µM	7.16 µM	4.49 µM	7.23 µM
CCCCCCCCCCCCSC1=C(Cl)C(=O)C(OC)=C(OC)C1=O	26.6	16.3	8.94 µM	14.2 µM	21.1 µM	17.6 µM	27.8 µM	21.8 µM	34.2 µM	27.6 µM	3.81 µM	2.67 µM	2.48 µM	0.539 µM	4.39 µM	2.36	1.69 µM	5.93 µM	4.79 µM	3.62 µM
CCCCCCCCC/C(=N\NC(=O)c1ccncc1)c1ccc(O)c(O)c1O	18	> 100	11.4 µM	> 100 µM	> 100 µM	3.3 µM	> 100 µM	> 100 µM	> 100 µM	9.32 µM	0.12 µM	0.385 µM	0.093 µM	0.491 µM	0.302 µM	0.188	0.0635 µM	0.384 µM	0.088 µM	0.293 µM
CCN1C(=O)N(CC)C2C1NN=c1s/c(=C\c3ccco3)c(=O)n12 (stereo not given)	> 100	> 100	> 100 µM	> 100 µM	> 100 µM	> 100 µM	> 100 µM	> 100 µM	> 89.7 µM	> 100 µM	4.24 µM	0.349 µM	0.417 µM	2.15 µM	0.801 µM	0.446	0.481 µM	> 22.8 µM	0.468 µM	> 100 µM
O=C1NC2C(=CC(O)C(O)C2O)c2cc3c(cc21)OCO3 (stereo not given)			0.561 µM and 3.38 µM	1.29 µM and 1.86 µM	6.87 µM and 4.1 µM	2.56 µM and 1.65 µM	9.97 µM and 6.41 µM	2.06 µM and 2.88 µM	1.7 µM and 1.8 µM	2.83 µM and 2.86 µM	0.159 µM and 0.422 µM	0.116 µM and 0.171 µM	0.152 µM	0.426 µM and 0.193 µM	0.462 µM and 0.273 µM	0.266	0.406 µM and 0.216 µM	0.201 µM	0.331 µM and 0.158 µM	0.47 µM and 0.304 µM
C#CCN(Cc1nc2cc(C(F)(F)F)ccc2nc1-c1ccccc1)c1ccc(C)cc1	> 43.2	> 84.8		42.3 µM	> 93 µM	27.9 µM	> 24.8 µM	> 41 µM	> 43.4 µM	59 µM	> 24.9 µM	31.7 µM	4.58 µM	15.7 µM	9.23 µM	7.32	6.01 µM	13.9 µM	8.15 µM	19.5 µM
COC(=O)C1=COC(C)C2CN3CCc4c([nH]c5cc(OC)c(OC)cc45)C3CC12 (stereo not given)	> 100	> 100	> 100 µM	> 100 µM	> 100 µM	> 100 µM	> 100 µM	> 100 µM	> 100 µM	> 100 µM	89.4 µM and 34.3 µM		15.1 µM and 64.2 µM					> 100 µM and 34.2 µM		
